Measured values reported in patent US7928098B2, “Therapeutic and/or preventive agents for a sleep disorder” (Kyowa Hakko Kirin Co., Ltd., priority 2005, dated 2011).

Row | SMILES | melting point
1 | COC1CCN(CC(=O)Nc2nc(-c3ccco3)c(C(=O)c3ccccn3)s2)CC1.Cl | 220 to 232 °C (dec.)
2 | CCN(CC)C(=O)C1CCCN(CC(=O)Nc2nc(-c3ccco3)c(C(=O)c3ccccn3)s2)C1.Cl (centres unmarked) | 180 to 185 °C
3 | CN1CCN(CC(=O)Nc2nc(-c3ccco3)c(C(=O)c3ccccn3)s2)CC1=O.Cl | 170 to 188 °C
4 | Cn1c(-c2sc(NC(=O)c3ccccc3)nc2-c2ccco2)cc2ccccc21 [Compound 36, N-[4-(2-Furyl)-5-(1-methylindol-2-yl)thiazol-2-yl]benzamide] | 195 to 196 °C
5 | Cn1ccc(-c2sc(NC(=O)c3ccncc3)nc2-c2ccco2)cc1=O [Compound 37, N-[4-(2-Furyl)-5-(1-methyl-2-oxo-1,2-dihydropyridin-4-yl)thiazol-2-yl]pyridine-4-carboxamide] | 280 to 282 °C
6 | Cn1cc(-c2sc(NC(=O)c3ccncc3)nc2-c2ccco2)ccc1=O [Compound 38, N-[4-(2-Furyl)-5-(1-methyl-2-oxo-1,2-dihydropyridin-5-yl)thiazol-2-yl]pyridine-4-carboxamide] | 294 to 295 °C
7 | CC(C)n1nc(-c2sc(NC(=O)c3ccncc3)nc2-c2ccco2)ccc1=O [Compound 39, N-[4-(2-Furyl)-5-(1-isopropyl-6-oxo-1,6-dihydropyridazin-3-yl)thiazol-2-yl]pyridine-4-carboxamide] | 190 to 194 °C
8 | CC(C)(O)C(=O)Nc1nc(-c2ccco2)c(C(=O)c2ccccc2)s1 [Compound 45, N-[5-Benzoyl-4-(2-furyl)thiazol-2-yl]-2-hydroxy-2-methylpropanamide] | 153 to 154 °C
9 | CN(C)Cc1cc(C(=O)Nc2nc(-c3ccco3)c(C(=O)c3ccccc3)s2)ccn1 [Compound 49, N-[5-Benzoyl-4-(2-furyl)thiazol-2-yl]-2-(dimethylaminomethyl)pyridine-4-carboxamide] | 205 to 209 °C
10 | O=C(Nc1nc(-c2ccco2)c(C(=O)c2ccccc2)s1)c1ccnc(CN2CCOCC2)c1 [Compound 52, N-[5-Benzoyl-4-(2-furyl)thiazol-2-yl]-2-(morpholinomethyl)pyridine-4-carboxamide] | 212 to 213 °C
11 | COCCN(C)c1cc(C(=O)Nc2nc(-c3ccco3)c(C(=O)c3ccccc3)s2)ccn1 [Compound 53, N-[5-Benzoyl-4-(2-furyl)thiazol-2-yl]-2-[N-(2-methoxyethyl)-N-methylamino]pyridine-4-carboxamide] | 145 to 147 °C
12 | Cn1cc(C(=O)Nc2nc(-c3ccco3)c(C(=O)c3ccccc3)s2)ccc1=O [Compound 58, N-[5-Benzoyl-4-(2-furyl)thiazol-2-yl]-1-methyl-2-oxo-1,2-dihydropyridine-5-carboxamide] | 220 to 225 °C
13 | CCn1cc(C(=O)Nc2nc(-c3ccco3)c(C(=O)c3ccccc3)s2)ccc1=O [Compound 59, N-[5-Benzoyl-4-(2-furyl)thiazol-2-yl]-1-ethyl-2-oxo-1,2-dihydropyridine-5-carboxamide] | 109 to 114 °C
14 | O=C(Nc1nc(-c2ccco2)c(C(=O)c2ccccc2)s1)c1ccc(=O)n(Cc2ccncc2)c1 [Compound 60, N-[5-Benzoyl-4-(2-furyl)thiazol-2-yl]-2-oxo-1-(pyridin-4-ylmethyl)-1,2-dihydropyridine-5-carboxamide] | 270 to 275 °C
15 | O=C(Nc1nc(-c2ccco2)c(C(=O)c2ccccc2)s1)c1ccnnc1 [Compound 61, N-[5-Benzoyl-4-(2-furyl)thiazol-2-yl]pyridazine-4-carboxamide] | 225 to 248 °C
16 | CC(=O)Nc1nc(-c2ccco2)c(C(=O)c2ccccn2)s1 [Compound 96, N-[4-(2-Furyl)-5-(pyridin-2-ylcarbonyl)thiazol-2-yl]-acetamide] | 216 to 217 °C
17 | CCCC(=O)Nc1nc(-c2ccco2)c(C(=O)c2ccccn2)s1 [Compound 97, N-[4-(2-Furyl)-5-(pyridin-2-ylcarbonyl)thiazol-2-yl]-butanamide] | 148 to 149 °C
18 | CC(C)(C)C(=O)Nc1nc(-c2ccco2)c(C(=O)c2ccccn2)s1 [Compound 98, N-[4-(2-Furyl)-5-(pyridin-2-ylcarbonyl)thiazol-2-yl]-2,2-dimethylpropanamide] | 186 to 187 °C
19 | CC1(C(=O)Nc2nc(-c3ccco3)c(C(=O)c3ccccn3)s2)CC1 [Compound 100, N-[4-(2-Furyl)-5-(pyridin-2-ylcarbonyl)thiazol-2-yl]-1-methylcyclopropanecarboxamide] | 195 to 196 °C
20 | O=C(c1ccccn1)c1sc(NC(=O)C2CCC2)nc1-c1ccco1 [Compound 101, N-[4-(2-Furyl)-5-(pyridin-2-ylcarbonyl)thiazol-2-yl]cyclobutanecarboxamide] | 165 to 170 °C
21 | O=C(c1ccccn1)c1sc(NC(=O)C2CCOCC2)nc1-c1ccco1 [Compound 102, N-[4-(2-Furyl)-5-(pyridin-2-ylcarbonyl)thiazol-2-yl]tetrahydropyran-4-carboxamide] | 234 to 235 °C
22 | O=C(c1ccccn1)c1sc(NC(=O)C2CCN(Cc3cccnc3)CC2)nc1-c1ccco1 [Compound 105, N-[4-(2-Furyl)-5-(pyridin-2-ylcarbonyl)thiazol-2-yl]-1-(pyridin-3-ylmethyl)piperidine-4-carboxamide] | 208 to 209 °C
23 | O=C(c1ccccn1)c1sc(NC(=O)C2CCN(Cc3ccncc3)CC2)nc1-c1ccco1 [Compound 106, N-[4-(2-Furyl)-5-(pyridin-2-ylcarbonyl)thiazol-2-yl]-1-(pyridin-4-ylmethyl)piperidine-4-carboxamide] | 240 to 241 °C

Now from value to compound:

Row | melting point | SMILES
24 | 165 to 171 °C | O=C(Nc1nc(-c2ccco2)c(C(=O)c2ccccn2)s1)c1ccccc1 [Compound 107, N-[4-(2-Furyl)-5-(pyridin-2-ylcarbonyl)thiazol-2-yl]-benzamide]
25 | 205 to 208 °C | COc1ccccc1C(=O)Nc1nc(-c2ccco2)c(C(=O)c2ccccn2)s1 [Compound 108, N-[4-(2-Furyl)-5-(pyridin-2-ylcarbonyl)thiazol-2-yl]-2-methoxybenzamide]
26 | 165 to 166 °C | COc1cccc(C(=O)Nc2nc(-c3ccco3)c(C(=O)c3ccccn3)s2)c1 [Compound 109, N-[4-(2-Furyl)-5-(pyridin-2-ylcarbonyl)thiazol-2-yl]-3-methoxybenzamide]
27 | 187 to 188 °C | COc1ccc(C(=O)Nc2nc(-c3ccco3)c(C(=O)c3ccccn3)s2)cc1 [Compound 110, N-[4-(2-Furyl)-5-(pyridin-2-ylcarbonyl)thiazol-2-yl]-4-methoxybenzamide]
28 | 169 to 170 °C | COc1ccc(C(=O)Nc2nc(-c3ccco3)c(C(=O)c3ccccn3)s2)cc1OC [Compound 111, N-[4-(2-Furyl)-5-(pyridin-2-ylcarbonyl)thiazol-2-yl]-3,4-dimethoxybenzamide]
29 | 172 to 180 °C (dec.) | COc1cc(C(=O)Nc2nc(-c3ccco3)c(C(=O)c3ccccn3)s2)cc(OC)c1OC [Compound 112, N-[4-(2-Furyl)-5-(pyridin-2-ylcarbonyl)thiazol-2-yl]-3,4,5-trimethoxybenzamide]
30 | 234 to 237 °C | N#Cc1cccc(C(=O)Nc2nc(-c3ccco3)c(C(=O)c3ccccn3)s2)c1 [Compound 113, 3-Cyano-N-[4-(2-furyl)-5-(pyridin-2-ylcarbonyl)thiazol-2-yl]benzamide]
31 | 168 to 169 °C | CC(=O)c1cccc(C(=O)Nc2nc(-c3ccco3)c(C(=O)c3ccccn3)s2)c1 [Compound 115, 3-Acetyl-N-[4-(2-furyl)-5-(pyridin-2-ylcarbonyl)thiazol-2-yl]benzamide]
32 | 204 to 206 °C | CC(=O)c1ccc(C(=O)Nc2nc(-c3ccco3)c(C(=O)c3ccccn3)s2)cc1 [Compound 116, 4-Acetyl-N-[4-(2-furyl)-5-(pyridin-2-ylcarbonyl)thiazol-2-yl]benzamide]
33 | 235 to 236 °C | O=C(Nc1nc(-c2ccco2)c(C(=O)c2ccccn2)s1)c1ccc2c(c1)OCO2 [Compound 117, N-[4-(2-Furyl)-5-(pyridin-2-ylcarbonyl)thiazol-2-yl]-3,4-methylenedioxybenzamide]
34 | 189 to 191 °C | O=C(Nc1nc(-c2ccco2)c(C(=O)c2ccccn2)s1)c1ccc2c(c1)OCCO2 [Compound 118, N-[4-(2-Furyl)-5-(pyridin-2-ylcarbonyl)thiazol-2-yl]-1,4-benzodioxane-6-carboxamide]
35 | 103 to 104 °C | O=C(c1ccccn1)c1sc(NC(=O)C2COc3ccccc3O2)nc1-c1ccco1 (centres unmarked) [Compound 119, N-[4-(2-Furyl)-5-(pyridin-2-ylcarbonyl)thiazol-2-yl]-1,4-benzodioxane-2-carboxamide]
36 | 187 to 188 °C | Cc1cc(C(=O)Nc2nc(-c3ccco3)c(C(=O)c3ccccn3)s2)ccn1 [Compound 120, N-[4-(2-Furyl)-5-(pyridin-2-ylcarbonyl)thiazol-2-yl]-2-methylpyridine-4-carboxamide]
37 | 219 to 225 °C | O=C(Nc1nc(-c2ccco2)c(C(=O)c2ccccn2)s1)c1ccnc(Cl)c1 [Compound 122, 2-Chloro-N-[4-(2-furyl)-5-(pyridin-2-ylcarbonyl)thiazol-2-yl]pyridine-4-carboxamide]
38 | 206 to 207 °C | O=C(Nc1nc(-c2ccco2)c(C(=O)c2ccccn2)s1)c1ccncc1Cl [Compound 123, 3-Chloro-N-[4-(2-furyl)-5-(pyridin-2-ylcarbonyl)thiazol-2-yl]pyridine-4-carboxamide]
39 | 254 to 258 °C | O=C(Nc1nc(-c2ccco2)c(C(=O)c2ccccn2)s1)c1cc(Cl)nc(Cl)c1 [Compound 124, 2,6-Dichloro-N-[4-(2-furyl)-5-(pyridin-2-ylcarbonyl)thiazol-2-yl]pyridine-4-carboxamide]
40 | 114 to 117 °C | COCCN(C)c1cc(C(=O)Nc2nc(-c3ccco3)c(C(=O)c3ccccn3)s2)ccn1 [Compound 125, N-[4-(2-Furyl)-5-(pyridin-2-ylcarbonyl)thiazol-2-yl]-2-[N-(2-methoxyethyl)-N-methylamino]pyridine-4-carboxamide]
41 | 136 to 141 °C | O=C(Nc1nc(-c2ccco2)c(C(=O)c2ccccn2)s1)c1ccnc(N2CCCCC2)c1 [Compound 126, N-[4-(2-Furyl)-5-(pyridin-2-ylcarbonyl)thiazol-2-yl]-2-piperidinopyridine-4-carboxamide]
